The source of these data is patent publication US7410975B2, “Small molecule toll-like receptor (TLR) antagonists” (Coley Pharmaceutical Group, Inc., priority 2003, dated 2008).

The assay has as its target T1, human TLR3 (hTLR3) (Homo sapiens, UniProt O15455).
T1 construct: expressed in transfected cells
T1 sequence (O15455 24-904): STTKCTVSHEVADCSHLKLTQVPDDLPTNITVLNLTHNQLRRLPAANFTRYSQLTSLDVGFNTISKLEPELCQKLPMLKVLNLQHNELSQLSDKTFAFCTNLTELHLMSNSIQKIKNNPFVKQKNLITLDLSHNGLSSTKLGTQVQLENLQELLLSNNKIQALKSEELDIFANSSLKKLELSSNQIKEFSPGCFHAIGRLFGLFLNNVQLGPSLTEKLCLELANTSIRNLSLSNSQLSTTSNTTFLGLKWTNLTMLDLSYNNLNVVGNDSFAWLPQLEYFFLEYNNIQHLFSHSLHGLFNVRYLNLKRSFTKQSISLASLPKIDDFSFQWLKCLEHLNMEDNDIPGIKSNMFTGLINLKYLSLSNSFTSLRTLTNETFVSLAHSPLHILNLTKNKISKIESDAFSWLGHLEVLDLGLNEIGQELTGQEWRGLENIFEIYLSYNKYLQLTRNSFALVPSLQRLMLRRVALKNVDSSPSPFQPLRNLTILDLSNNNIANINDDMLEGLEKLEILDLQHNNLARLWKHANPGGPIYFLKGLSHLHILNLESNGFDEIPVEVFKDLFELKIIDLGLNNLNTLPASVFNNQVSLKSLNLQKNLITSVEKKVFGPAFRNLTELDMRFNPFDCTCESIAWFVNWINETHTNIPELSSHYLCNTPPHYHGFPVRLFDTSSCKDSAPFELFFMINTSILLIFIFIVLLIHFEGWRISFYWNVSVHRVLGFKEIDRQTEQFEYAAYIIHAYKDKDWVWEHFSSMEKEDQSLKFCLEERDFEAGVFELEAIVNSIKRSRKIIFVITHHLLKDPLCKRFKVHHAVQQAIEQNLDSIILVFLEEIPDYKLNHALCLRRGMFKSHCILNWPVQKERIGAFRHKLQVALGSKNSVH
As to the kind of experiment: Antagonist screen, hTLR3-NFκB-293 cells, NF-κB-luciferase reporter, with EC50 of poly(I:C). Particulars: compound at 0.5, 5, 50 μg/ml; EC50 concentration of poly(I:C); 16 h; NF-κB-luciferase. It counts as cell-based. On the procedure: The method is described in greater detail as follows. The cells for each individual cell clone (hTLR3-NFκB-293, hTLR7-NFκB-293, hTLR8-NFκB-293 and hTLR9-NFκB-293) were counted and seeded one day before the stimulation at 1.5×10^4 cells per well in 96-well cell culture plates. To become adherent the cells were incubated after seeding overnight at 37° C. in 5% CO2 humidified air.
The screen for each compound was performed at the same time for all of the receptors TLR3, TLR7, TLR8 and TLR9. Up to fifteen test compounds, each assayed in duplicate at each of three different final concentrations (0.5 μg/ml, 5 μg/ml, and 50 μg/ml), were used for 16 h cell stimulation on a single multiwell culture plate. A 4× final concentration master plate was created to prepare the different test compounds before they were added to the cells.
Controls were added as duplicates individually for each cell clone on the cell culture plate. Positive controls were used as follows (final concentrations): 50 μg/ml poly(I:C) for hTLR3-NFκB-293; 8 μM resiquimod (R848) for hTLR7-NFκB-293; 30 μM R848 for hTLR8-NFκB-293; and 2.5 μM CpG-ODN 2006 for hTLR9-NFκB-293. Media alone was used as negative control. After addition of controls and small molecules, the cell clones were additionally stimulated with the EC50 concentration of the appropriate receptor-specific ligand.
The mean value of wells H2 and H5 (each with cells and EC50 concentration of the appropriate receptor-specific ligand) divided by the mean of wells H3 and H6 (each with cells alone) yielded the baseline response (i.e., fold induction of luciferase activity) to EC50 concentration of the appropriate receptor-specific ligand.
After 16 h stimulation the supernatant was removed and the cells treated with lysis buffer and stored at −80° C. before measuring.
For each screen result a graphical documentation was performed.
The baseline result (measured with addition of the EC50 concentration of the receptor-specific ligand) for each cell culture plate was measured as described above. Antagonistic effects were measured by down regulation compared to the baseline. Antagonists were scored as follows: • 13: compounds for which there was clear down regulation at 0.5 μg/ml, 5 μg/ml, and 50 μg/ml; • 12: compounds for which there was clear down regulation at 5 μg/ml and 50 μg/ml; • 11: compounds for which there was clear down regulation only at 50 μg/ml; • —: compounds for which there was no clear down regulation even at 50 μg/ml. Agonists
Results were expressed as fold induction over baseline luciferase activity measured in the absence of poly(I:C). […] Additional screening was performed in like manner using additional small molecules selected from another library or specifically prepared for this purpose. Scoring is reported as above but as applied to TLR3.
For orientation: A reporter such as luciferase makes a cellular process visible.
For `C[N+]12CCC(CC1)C(OC(=O)C(O)(c1ccccc1)c1ccccc1)C2.[Br-]` (stereo not drawn) [compound 822, Clidinium bromide], the “hTLR3 (inhibitory effect, antagonist score)” value is “— (compounds for which there was no clear down regulation even at 50 μg/ml)”.
As to `CCN(CC)C(C)CN1c2ccccc2Sc2ccccc21.Cl` (stereo not drawn) [compound 840, Ethopropazinehydrochloride], the “hTLR3 (inhibitory effect, antagonist score)” value was “— (compounds for which there was no clear down regulation even at 50 μg/ml)”.
“Prochlorperazinedimaleate [compound 399]”: the “hTLR3 (inhibitory effect, antagonist score)” value was 12 (compounds for which there was clear down regulation at 5 μg/ml and 50 μg/ml).
As to `c1ccc2c(c1)[nH]c1cnccc12` [compound 470, norharman], the “hTLR3 (inhibitory effect, antagonist score)” value is on record as 11 (compounds for which there was clear down regulation only at 50 μg/ml).
For the molecule `CCN(CC)CCCN(CC(=O)C1c2ccc(Cl)cc2NC(=O)c2ccccc21)C(=O)c1ccccc1` (stereo not drawn) [compound 1013], the “hTLR3 (inhibitory effect, antagonist score)” value is given as “— (compounds for which there was no clear down regulation even at 50 μg/ml)”.
Consider `Cl.Cl.OCCN1CCN(CC/C=C2/c3ccccc3Sc3ccc(C(F)(F)F)cc32)CC1` [compound 340, Flupentixoldihydrochloride cis-(Z)], for which the “hTLR3 (inhibitory effect, antagonist score)” value is 11 (compounds for which there was clear down regulation only at 50 μg/ml).
Take `CN(CCO)C(=O)c1cccc2c1-c1ccccc1C2=O` [compound 890]: the “hTLR3 (inhibitory effect, antagonist score)” value was “— (compounds for which there was no clear down regulation even at 50 μg/ml)”.
For the molecule “Trifluoperazinedihydrochloride [compound 313]”, the “hTLR3 (inhibitory effect, antagonist score)” value is “— (compounds for which there was no clear down regulation even at 50 μg/ml)”.
As for `Clc1ccc(C(c2ccccc2Cl)C(Cl)Cl)cc1` (stereo not drawn) [compound 833, Mitotane], the “hTLR3 (inhibitory effect, antagonist score)” value was 11 (compounds for which there was clear down regulation only at 50 μg/ml).
The value for `COC(=O)c1cccc(C(O)(c2ccccc2)c2ccccc2)c1S(=O)(=O)C(C)(C)C` [compound 1187] was 12 (compounds for which there was clear down regulation at 5 μg/ml and 50 μg/ml); that for `O=C1c2ccccc2C(=O)c2c1ccc1c(=O)n(C3CCCCC3)[nH]c21` [compound 1015] was “— (compounds for which there was no clear down regulation even at 50 μg/ml)”.
For the molecule `COC(=O)[C@H]1[C@H]2C[C@@H]3c4[nH]c5cc(OC)ccc5c4CCN3C[C@H]2C[C@@H](OC(=O)/C=C/c2cc(OC)c(OC)c(OC)c2)[C@@H]1OC` [compound 568, Rescinnamin], the “hTLR3 (inhibitory effect, antagonist score)” value is reported as “— (compounds for which there was no clear down regulation even at 50 μg/ml)”.
The entry for `Cc1cccc(CN2CCN(C(c3ccccc3)c3ccc(Cl)cc3)CC2)c1.Cl.Cl` (stereo not drawn) [compound 457, Meclozinedihydrochioride] is “— (compounds for which there was no clear down regulation even at 50 μg/ml)”.
As to `CCOCCOC(=O)c1cc([N+](=O)[O-])cc2c1-c1c(cc([N+](=O)[O-])cc1[N+](=O)[O-])C2=C(C#N)C#N` [compound 1241], the “hTLR3 (inhibitory effect, antagonist score)” value is reported as 11 (compounds for which there was clear down regulation only at 50 μg/ml).
`O=C1c2ccccc2C(=O)c2c1ccc1c(=O)n(-c3ccccc3)[nH]c21` [compound 1042]: the “hTLR3 (inhibitory effect, antagonist score)” value is 11 (compounds for which there was clear down regulation only at 50 μg/ml).
Consider `Nc1cccc2c1C(=O)c1cccc(N)c1C2=O` [compound 413, Anthraquinone,1,5-diamino], for which the “hTLR3 (inhibitory effect, antagonist score)” value is 11 (compounds for which there was clear down regulation only at 50 μg/ml).
As to `O=c1[nH]c2ccccc2n1C1CCN(CCCC(c2ccc(F)cc2)c2ccc(F)cc2)CC1` [compound 308, Pimozide], the “hTLR3 (inhibitory effect, antagonist score)” value is 12 (compounds for which there was clear down regulation at 5 μg/ml and 50 μg/ml).
With `CN1CCC2C(C1)c1ccccc1N2Cc1ccccc1` (stereo not drawn) [compound 455, Mebhydroline 1,5 naphtalenedisulfonate], the “hTLR3 (inhibitory effect, antagonist score)” value is “— (compounds for which there was no clear down regulation even at 50 μg/ml)”.
With `COC(=O)c1cccc2c1-c1ccccc1/C2=N/O` [compound 904], the “hTLR3 (inhibitory effect, antagonist score)” value is 12 (compounds for which there was clear down regulation at 5 μg/ml and 50 μg/ml).
With `CN(C)CC/C=C1/c2ccccc2CSc2ccccc21.Cl` [compound 488, Dosulepin hydrochloride], the “hTLR3 (inhibitory effect, antagonist score)” value is recorded as 11 (compounds for which there was clear down regulation only at 50 μg/ml).
The figure for `CC[C@]12CCCN3CCc4c(n(c5ccccc45)[C@](O)(C(=O)OC)C1)[C@@H]32` [compound 636, Epivincamine] is 11 (compounds for which there was clear down regulation only at 50 μg/ml).
On to `Cc1cc(OC(=O)C2C3CCCCC32)c(C(C)C)cc1C1(c2cc(C(C)C)c(OC(=O)C3C4CCCCC43)cc2C)OC(=O)c2ccccc21` (stereo not drawn) [compound 974], for which the “hTLR3 (inhibitory effect, antagonist score)” value was 11 (compounds for which there was clear down regulation only at 50 μg/ml).
As to `O=C(O)c1cc(C(c2ccc(O)c(C(=O)O)c2)C(Cl)(Cl)Cl)ccc1O` [compound 884], the “hTLR3 (inhibitory effect, antagonist score)” value was “— (compounds for which there was no clear down regulation even at 50 μg/ml)”.
On to `CC1CCN(C(=O)c2cccc3c2-c2ccccc2C3=O)CC1` [compound 1243], for which the “hTLR3 (inhibitory effect, antagonist score)” value is “— (compounds for which there was no clear down regulation even at 50 μg/ml)”.
The value for `CN(C)CCC=C1c2ccccc2CCc2ccccc21.Cl` [compound 74, Amitryptilinehydrochloride] was “— (compounds for which there was no clear down regulation even at 50 μg/ml)”.
The entry for `CC(CN(C)C)CN1c2ccccc2Sc2ccccc21.CC(CN(C)C)CN1c2ccccc2Sc2ccccc21.O=C(O)C(O)C(O)C(=O)O` (stereo not drawn) [compound 842, Trimeprazine tartrate] is “— (compounds for which there was no clear down regulation even at 50 μg/ml)”; for `O=C1c2c(O)cccc2Cc2cccc(O)c21` [compound 43, Anthralin] it is “— (compounds for which there was no clear down regulation even at 50 μg/ml)”; for `CN1CCN(C(c2ccccc2)c2ccccc2)CC1.Cl` [compound 510, Cyclizine hydrochloride] it is “— (compounds for which there was no clear down regulation even at 50 μg/ml)”.
As to `CN(C)CCCN1c2ccccc2Sc2ccccc21.Cl` [compound 693, Promazinehydrochloride], the “hTLR3 (inhibitory effect, antagonist score)” value is listed as “— (compounds for which there was no clear down regulation even at 50 μg/ml)”.
As to `CCCC(C(=O)OCCN(CC)CC)(c1ccccc1)c1ccccc1.Cl` [compound 778, Proadifen hydrochloride], the “hTLR3 (inhibitory effect, antagonist score)” value is 11 (compounds for which there was clear down regulation only at 50 μg/ml).
